By log P is commonly meant the decadic logarithm of the partition coefficient of the neutral form, usually between octanol and water. Read a high log P as higher lipophilicity. As a reminder, the mortality is the share of the test organisms that died. Usually logP stands for a log measure of how a compound divides between an organic and an aqueous phase. Read a low logP as lower lipophilicity.

In data set [1] the test system is Ctenocephalides felis. Put plainly: Ctenocephalides felis - oral test. The format is in vivo. Particulars: application rate 100 ppm in citrated cattle blood; after 2 days. The method in brief:
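Compound in DMSO diluted into citrated cattle blood, fed through a parafilm membrane to about 20 unfed adult cat fleas. Kill in % scored after 2 days (100% = all dead).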

In the next data set the test system is Musca domestica. In words: Musca domestica test. The format is in vivo. Conditions: application rate 100 ppm; adult houseflies; after 2 days. The essentials:
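Percent kill of adult houseflies is recorded 2 days after exposure, where 100% denotes all flies dead and 0% none. Flies (10 per vessel) feed from a sponge carrying sugar solution and the aqueous-diluted DMSO formulation.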

For a further data set, the system named is Amblyomma hebraeum. Put plainly: Amblyomma hebaraeum test (tick nymphs, immersion). Type of data set: in vivo. Particulars: application rate 100 ppm; tick nymphs immersed one minute; after 42 days. The method in brief:
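Tick nymphs immersed for one minute in compound diluted in water from a DMSO concentrate, then held on filter paper in a Petri dish in a climate-controlled cabinet. Kill (%) scored after 42 days; 100% means all ticks dead, 0% none.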

In another data set the test system is Myzus persicae. In words: Myzus persicae - spray test. Type of data set: in vivo. Conditions: Chinese cabbage leaf discs, after 6 days. The essentials:
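Chinese cabbage leaf discs carrying all stages of Myzus persicae sprayed with compound in acetone/DMF diluted in water with 1000 ppm emulsifier. Efficacy (% aphids killed) assessed after 6 days.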

The next data set concerns Boophilus microplus. In words: Boophilus microplus - injection test. Type of data set: in vivo. Particulars: application rate 20 μg/animal, injection into engorged adult female ticks, after 7 days; for pest or weed control at 0.02 mg: Rhipicephalus microplus, 168 h, read-out: efficacy (laying of fertile eggs). The essentials:
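Active ingredient in DMSO, 1 μl injected into the abdomen of 5 engorged adult female ticks, then held in a climate-controlled room. Efficacy scored after 7 days from laying of fertile eggs, with non-fertile-looking eggs kept about 42 days for larval hatch; 100% means no fertile eggs.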

The test system of data set [2] is Boophilus microplus Parkhurst strain, SP-resistant. Put plainly: Boophilus microplus - dip test. Type of data set: in vivo. Conditions: application rate 100 ppm; dip of engorged adult female ticks; after 7 days. The essentials:
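SP-resistant Parkhurst strain engorged adult female Boophilus microplus (8-10 per tube) dipped in DMSO-based compound dilutions in water, then kept in a climate-controlled room. Efficacy scored after 7 days from fertile egg laying, with larval hatch checked after about 42 days; 100% means no fertile eggs.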

The test system of the next data set is Rhipicephalus sanguineus. In words: Rhipicephalus sanguineus - in vitro contact tests with adult brown dog ticks. Type of data set: in vivo. Particulars: application rate 5 μg/cm2; after 48 h; ticks dead or moribund. The essentials:
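Test tubes coated with active ingredient in acetone, 5 μg/cm^2 at 900 ppm. 5-10 adult ticks per tube, kept dark at room temperature for 48 h. Ticks then heated at 45-50° C ≤5 min; motionless or uncoordinated ticks scored dead/moribund, efficacy as % dead or moribund.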

For the next data set, the system named is Spodoptera frugiperda. Put plainly: Spodoptera frugiperda - spray test. Type of data set: in vivo. Particulars: caterpillars on maize leaf discs, after 7 days. The method in brief:
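Maize leaf discs sprayed with compound formulated in acetone/DMF and diluted in water containing 1000 ppm alkylaryl polyglycol ether emulsifier, then infested with armyworm caterpillars after drying. Efficacy scored after 7 days as % caterpillars killed (100% all, 0% none).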

The subject of a further data set is Tetranychus urticae. In words: Tetranychus urticae - spray test, OP-resistant. Type of data set: in vivo. Conditions: bean leaf discs, after 6 days. The essentials:
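Compound dissolved in acetone/DMF, diluted with water containing 1000 ppm alkylaryl polyglycol ether emulsifier to test concentrations. Bean leaf discs infested with all stages of spider mites were sprayed; % kill determined after 6 days (100% = all mites dead, 0% = none).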

For data set [3], the system named is Ctenocephalides felis. Put plainly: Ctenocephalides felis - in vitro contact tests with adult cat fleas. The format is in vivo. Conditions: application rate 5 μg/cm2 (=500 g/ha); after 48 h; fleas dead or moribund. The essentials:
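Tubes coated with compound in acetone (250 μl of 900 ppm solution gives 5 μg/cm^2 on 44.7 cm^2), solvent evaporated, then 5–10 adult fleas added and kept horizontal at room temperature and ambient humidity. After 48 h, dead or moribund (motionless/uncoordinated) fleas scored as % efficacy.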

The next data set has as its system Phaedon cochleariae. Put plainly: Phaedon cochleariae - spray test. Type of data set: in vivo. Conditions: larvae on Chinese cabbage leaf discs, after 7 days. The method in brief: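 Chinese cabbage leaf discs sprayed with compound formulated in acetone/DMF and water containing 1000 ppm emulsifier; once dry, infested with mustard beetle larvae. Efficacy (% larvae killed) scored after 7 days.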

The subject of a further data set is Lucilia cuprina. Put plainly: Lucilia cuprina test. Conditions: application rate 100 ppm; L1 larvae; after 2 days. The format is in vivo. The method in brief: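 About 20 L1 larvae placed on minced horsemeat treated with compound, formulated in DMSO and diluted with water to test concentration. Kill in % scored after 2 days (100% = all larvae dead, 0% = none).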

A short description of data set [4]: logP determination by HPLC on a reversed-phase column (C18). Type of data set: physicochemical. Conditions: for logP^a): HPLC-MS method a); for logP^a) / log P: reversed-phase column (C18); for log P: HPLC-MS, Table I-T3; for logP: HPLC, C18 reversed phase, acetonitrile/water with formic acid, EEC Directive 79/831 Annex V.A8.
For a further data set, the system named is Meloidogyne incognita. Put plainly: Meloidogyne incognita test. The format is in vivo. Particulars: application rate 20 ppm; lettuce; after 14 days. On the procedure:
Solvent: 125.0 parts by weight of acetone
To produce an appropriate active ingredient formulation, 1 part by weight of active ingredient is mixed with the stated amount of solvent and the concentrate is diluted with water to the desired concentration.
Vessels are filled with sand, active ingredient solution, an egg/larvae suspension of the southern root-knot nematode (Meloidogyne incognita) and lettuce seeds. The lettuce seeds germinate and the plants develop. The galls develop on the roots.
After 14 days, the nematicidal efficacy in % is determined by the formation of galls. 100% means that no galls were found; 0% means that the number of galls on the treated plants corresponds to the untreated control.

Data set [5] relates to Aedes aegypti strain MONHEIM. Put plainly: Aedes test (AEDSAE surface treatment). The format is in vivo. Conditions: read-out: efficacy (mortality). On the procedure:
(§1) Solvent: acetone+2000 ppm rapeseed oil methyl ester (RME)
To produce an appropriate active ingredient formulation, the active ingredient is dissolved in the solvent (2 mg/ml). The active ingredient formulation is pipetted onto a glazed tile and, after it has dried off, adult mosquitoes of the species Aedes aegypti strain MONHEIM are placed onto the treated tile. The exposure time is 30 minutes.
(§2) 24 hours after contact with the treated surface, mortality in % is determined. 100% means that all mosquitoes have been killed; 0% means that none of the mosquitoes have been killed.

Data set [6] relates to Anopheles funestus strain FUMOZ-R. Put plainly: Anopheles test (ANPHFU surface treatment). Type of data set: in vivo. Particulars: read-out: efficacy (mortality). On the procedure: as §1
To produce an appropriate active ingredient formulation, the active ingredient is dissolved in the solvent (2 mg/ml). The active ingredient formulation is pipetted onto a glazed tile and, after it has dried off, adult mosquitoes of the species Anopheles funestus strain FUMOZ-R (Hunt et al., Med Vet Entomol. 2005 September; 19 (3):271-5) are placed onto the treated tile. The exposure time is 30 minutes.
as §2

Data set [7] has as its system Anopheles gamhiae strain RSPH (homozygot kdr). Put plainly: Anopheles test (ANPHGB surface treatment). Type of data set: in vivo. Conditions: read-out: efficacy (mortality). On the procedure:
as §1
To produce an appropriate active ingredient formulation, the active ingredient is dissolved in the solvent (2 mg/ml). The active ingredient formulation is pipetted onto a glazed tile and, after it has dried off, adult mosquitoes of the species Anopheles gamhiae strain RSPH (homozygot kdr) are placed onto the treated tile. The exposure time is 30 minutes.
as §2

For the molecule `O=C(NC1CC1)c1cc(-c2cnn(-c3c(Cl)cc(C(F)(C(F)(F)F)C(F)(F)F)cc3OC(F)(F)F)c2)ccc1Cl` [I-T3-162], the “efficacy (kill)” value in the data set on Ctenocephalides felis [1], with Musca domestica, in the data set on Amblyomma hebraeum and in the data set with Lucilia cuprina was 100% in each case. For the same molecule, the efficacy in the data set on Myzus persicae (application rate 100 g/ha), in the data set with Rhipicephalus sanguineus, with Spodoptera frugiperda (application rate 100 g/ha), in the data set on Tetranychus urticae (application rate 100 g/ha), in the data set on Ctenocephalides felis [3] and in the data set with Phaedon cochleariae (application rate 100 g/ha) was 100% in each case. Also, the “efficacy (laying of fertile eggs)” value (in the data set on Boophilus microplus; in data set [2]) was 100% in each case. For the same molecule, the “logP^a)” value in [4] is recorded as 4.6. Moreover, in data set [4], the log partition coefficient (log P) came out at 4.6.

Regarding `N#CC1(NC(=O)c2cc(-c3cnn(-c4c(Cl)cc(C(F)(C(F)(F)F)C(F)(F)F)cc4OC(F)(F)F)c3)ccc2Cl)CC1` [I-T3-163], the “efficacy (kill)” value with Ctenocephalides felis [1], in the data set with Musca domestica, in the data set with Amblyomma hebraeum and with Lucilia cuprina was 100% each time. Further, the efficacy with Myzus persicae (application rate 100 g/ha) worked out at 90%; in the data set on Rhipicephalus sanguineus, 100%; with Spodoptera frugiperda (application rate 100 g/ha), 100%; in the data set with Tetranychus urticae (application rate 100 g/ha), 100%; in the data set with Ctenocephalides felis [3] it was 100%; with Phaedon cochleariae (application rate 100 g/ha) it was 100%. Besides, the “efficacy (laying of fertile eggs)” value (with Boophilus microplus; in data set [2]) was 100% each time. Further, the “logP^a)” value in data set [4] is listed as 4.5. In addition, the “log P” value in [4] is recorded as 4.5.

Consider `O=C(NC1CC1)c1cc(-c2cnn(-c3c(Cl)cc(C(F)(F)F)c(F)c3Cl)c2)ccc1Cl` [I-T3-184], for which the efficacy with Myzus persicae (application rate 100 g/ha), in the data set with Spodoptera frugiperda (application rate 500 g/ha), in the data set with Tetranychus urticae (application rate 500 g/ha) and in the data set with Phaedon cochleariae (application rate 500 g/ha) was 100% throughout. Moreover, the “nematicidal efficacy (formation of galls)” value in the data set with Meloidogyne incognita came out at 90%. The “log P” value in data set [4] is 3.6.

In the case of `N#CC1(NC(=O)c2cc(-c3cnn(-c4c(Cl)cc(C(F)(F)F)c(F)c4Cl)c3)ccc2Cl)CC1` [I-T3-185], the efficacy with Myzus persicae (application rate 500 g/ha), in the data set with Spodoptera frugiperda (application rate 500 g/ha), with Tetranychus urticae (application rate 500 g/ha) and with Phaedon cochleariae (application rate 500 g/ha) was 100% throughout. Also, the “nematicidal efficacy (formation of galls)” value in the data set on Meloidogyne incognita was 90%. Besides, in [4], the “log P” value worked out at 3.6.

Take `Cc1cc(C(F)(C(F)(F)F)C(F)(F)F)cc(C)c1-c1cc(-c2ccc(Cl)c(C(=O)NC3CC3)c2)on1` [I-T22-1, 2-chloro-N-cyclopropyl-5-[3-[2,6-dimethyl-4-[1,2,2,2-tetrafluoro-1-(trifluoromethyl)ethyl]phenyl]isoxazol-5-yl]benzamide]: the “efficacy (kill)” value with Musca domestica and in the data set with Amblyomma hebraeum was 100% in each case. The efficacy with Myzus persicae (application rate 100 g/ha), in the data set with Rhipicephalus sanguineus and in the data set on Ctenocephalides felis [3] was 100% in each case. The pest or weed control at 0.02 mg in the data set on Boophilus microplus came out at 100%. The “efficacy (laying of fertile eggs)” value in data set [2] amounted to 100%. Besides, the mortality at 20 mg/m2 in data set [5] and in data set [6] was 90 to 100% in each case. Besides, the mortality at 100 mg/m2 in data set [5], in [6] and in data set [7] was 90 to 100% in each case. For the same molecule, the logP in [4] turned out to be 4.8.

Take `Cc1cc(C(F)(C(F)(F)F)C(F)(F)F)cc(C)c1-c1cc(-c2ccc(Cl)c(C(=O)NC3(C#N)CC3)c2)on1` [I-T22-2]: the “efficacy (kill)” value with Ctenocephalides felis [1], in the data set on Musca domestica, in the data set with Amblyomma hebraeum and in the data set on Lucilia cuprina was 100% throughout. Also, the efficacy was 100% with Myzus persicae (application rate 100 g/ha); 100% in the data set with Rhipicephalus sanguineus; 100% with Spodoptera frugiperda (application rate 100 g/ha); 90% in the data set with Tetranychus urticae (application rate 100 g/ha); 100% in the data set with Ctenocephalides felis [3]; 100% in the data set on Phaedon cochleariae (application rate 100 g/ha). Besides, the “efficacy (laying of fertile eggs)” value (in the data set with Boophilus microplus; in data set [2]) was 100% throughout. The same molecule gave a logP in [4] of 4.6.

Regarding `O=C(NC1CC1)c1cc(-c2cc(-c3c(Cl)cc(C(F)(C(F)(F)F)C(F)(F)F)cc3Cl)on2)ccc1Cl` [I-T23-1, 2-chloro-N-cyclopropyl-5-[5-[2,6-dichloro-4-[1,2,2,2-tetrafluoro-1-(trifluoromethyl)ethyl]phenyl]isoxazol-3-yl]benzamide], the “efficacy (kill)” value with Musca domestica and with Amblyomma hebraeum was 100% in each case. The pest or weed control at 0.02 mg in the data set on Boophilus microplus was determined as 100%. Also, the “efficacy (laying of fertile eggs)” value in [2] is on record as 100%. The mortality at 20 mg/m2 in data set [5] and in data set [6] was 90 to 100% throughout. In addition, the mortality at 100 mg/m2 in data set [5] was in the range of 90 to 100%. In addition, the efficacy in the data set with Ctenocephalides felis [3] is listed as 100%. Also, in data set [4], the logP is given as 5.0.
